Converted amounts (≈) assume the structure as drawn.
System: Streptococcus pyogenes
Experiment: Tested for inhibition of visible growth of Streptococcus pyogenes
Type: functional
Conditions: not given

MIC [µg/mL]	Structure (SMILES)
0.05 (≈ 0.0962 µM)	Cc1nnc(SCC2=C(C(=O)O)N3C(=O)C(NC(=O)[C@H](N)c4ccc5c(c4)CCO5)C3SC2)s1 (stereo partly specified)
0.8 (≈ 1.53 µM)	Cc1nnc(SCC2=C(C(=O)O)N3C(=O)C(NC(=O)[C@@H](N)c4ccc5c(c4)OCO5)C3SC2)s1 (stereo partly specified)
12.5 (≈ 31.9 µM)	CC1=C(C(=O)O)N2C(=O)C(NC(=O)[C@@H](N)c3ccc4c(c3)OCO4)C2SC1 (stereo partly specified)

Second part, the molecule before the results:

Structure (SMILES)	MIC [µg/mL]
CC1=C(C(=O)O)N2C(=O)C(NC(=O)[C@H](N)c3ccc4c(c3)OCCO4)C2SC1 (stereo partly specified)	0.4 (≈ 0.987 µM)
CC(=O)OCC1=C(C(=O)O)N2C(=O)[C@@H](NC(=O)Cc3cccs3)[C@H]2SC1 [CEPHALOTHIN]	0.1 (≈ 0.252 µM)

System: Klebsiella pneumoniae
Experiment: Tested for inhibition of visible growth of Klebsiella pneumoniae
Type: functional
Conditions: not given

MIC [µg/mL]	Structure (SMILES)
6.2 (≈ 11.9 µM)	Cc1nnc(SCC2=C(C(=O)O)N3C(=O)C(NC(=O)[C@H](N)c4ccc5c(c4)CCO5)C3SC2)s1 (stereo partly specified)
> 100	Cc1nnc(SCC2=C(C(=O)O)N3C(=O)C(NC(=O)[C@@H](N)c4ccc5c(c4)OCO5)C3SC2)s1 (stereo partly specified)
> 100	CC1=C(C(=O)O)N2C(=O)C(NC(=O)[C@@H](N)c3ccc4c(c3)OCO4)C2SC1 (stereo partly specified)

The next lines start with the molecule.

Structure (SMILES)	MIC [µg/mL]
CC1=C(C(=O)O)N2C(=O)C(NC(=O)[C@H](N)c3ccc4c(c3)OCCO4)C2SC1 (stereo partly specified)	100 (≈ 247 µM)
CC(=O)OCC1=C(C(=O)O)N2C(=O)[C@@H](NC(=O)Cc3cccs3)[C@H]2SC1 [CEPHALOTHIN]	3.1 (≈ 7.82 µM)

System: Escherichia coli
Experiment: Tested for the antimicrobial activity against Escherichia coli in mice perorally
Type: functional
Conditions: po

Structure (SMILES)	ED50 [mg/kg]
Cc1nnc(SCC2=C(C(=O)O)N3C(=O)C(NC(=O)[C@H](N)c4ccc5c(c4)CCO5)C3SC2)s1 (stereo partly specified)	20

System: Streptococcus pneumoniae
Experiment: (§1) Tested for the antimicrobial activity against Streptococcus pneumoniae in mice
Type: functional
Conditions: not given

Structure (SMILES)	ED50 [mg/kg]
CC1=C(C(=O)O)N2C(=O)C(NC(=O)[C@H](N)c3ccc4c(c3)OCCO4)C2SC1 (stereo partly specified)	14
Cc1nnc(SCC2=C(C(=O)O)N3C(=O)C(NC(=O)[C@H](N)c4ccc5c(c4)CCO5)C3SC2)s1 (stereo partly specified)	0.89

System: Staphylococcus aureus
Experiment: Tested for inhibition of visible growth of Staphylococcus aureus
Type: functional
Conditions: not given

Structure (SMILES)	MIC [µg/mL]
CC1=C(C(=O)O)N2C(=O)C(NC(=O)[C@H](N)c3ccc4c(c3)OCCO4)C2SC1 (stereo partly specified)	3.1 (≈ 7.65 µM)
Cc1nnc(SCC2=C(C(=O)O)N3C(=O)C(NC(=O)[C@H](N)c4ccc5c(c4)CCO5)C3SC2)s1 (stereo partly specified)	3.1 (≈ 5.97 µM)
CC(=O)OCC1=C(C(=O)O)N2C(=O)[C@@H](NC(=O)Cc3cccs3)[C@H]2SC1 [CEPHALOTHIN]	0.8 (≈ 2.02 µM)

System: Staphylococcus aureus
Experiment: Tested for the antimicrobial activity against Staphylococcus aureus
Type: functional
Conditions: not given

Structure (SMILES)	ED50 [mg/kg]
CC1=C(C(=O)O)N2C(=O)C(NC(=O)[C@H](N)c3ccc4c(c3)OCCO4)C2SC1 (stereo partly specified)	1.5
Cc1nnc(SCC2=C(C(=O)O)N3C(=O)C(NC(=O)[C@H](N)c4ccc5c(c4)CCO5)C3SC2)s1 (stereo partly specified)	0.88

System: Proteus mirabilis
Experiment: Tested for inhibition of visible growth of Proteus mirabilis
Type: functional
Conditions: not given

MIC [µg/mL]	Structure (SMILES)
> 100	Cc1nnc(SCC2=C(C(=O)O)N3C(=O)C(NC(=O)[C@H](N)c4ccc5c(c4)CCO5)C3SC2)s1 (stereo partly specified)
> 100	Cc1nnc(SCC2=C(C(=O)O)N3C(=O)C(NC(=O)[C@@H](N)c4ccc5c(c4)OCO5)C3SC2)s1 (stereo partly specified)
> 100	CC1=C(C(=O)O)N2C(=O)C(NC(=O)[C@@H](N)c3ccc4c(c3)OCO4)C2SC1 (stereo partly specified)

The remaining lines, values behind:

Structure (SMILES)	MIC [µg/mL]
CC1=C(C(=O)O)N2C(=O)C(NC(=O)[C@H](N)c3ccc4c(c3)OCCO4)C2SC1 (stereo partly specified)	> 100
CC(=O)OCC1=C(C(=O)O)N2C(=O)[C@@H](NC(=O)Cc3cccs3)[C@H]2SC1 [CEPHALOTHIN]	12.5 (≈ 31.5 µM)

Species: Mus musculus
Experiment: Tested for the antimicrobial activity against Staphylococcus aureus, benzyl-penicillin resistant in mice, perorally
Type: functional
Conditions: po

Structure (SMILES)	ED50 [mg/kg]
CC1=C(C(=O)O)N2C(=O)C(NC(=O)[C@H](N)c3ccc4c(c3)OCCO4)C2SC1 (stereo partly specified)	8.3

System: Enterobacter cloacae
Experiment: Tested for inhibition of visible growth of Enterobacter cloacae
Type: functional
Conditions: not given

Structure (SMILES)	MIC [µg/mL]
CC1=C(C(=O)O)N2C(=O)C(NC(=O)[C@H](N)c3ccc4c(c3)OCCO4)C2SC1 (stereo partly specified)	> 100
Cc1nnc(SCC2=C(C(=O)O)N3C(=O)C(NC(=O)[C@H](N)c4ccc5c(c4)CCO5)C3SC2)s1 (stereo partly specified)	> 100
CC(=O)OCC1=C(C(=O)O)N2C(=O)[C@@H](NC(=O)Cc3cccs3)[C@H]2SC1 [CEPHALOTHIN]	> 100

System: Klebsiella aerogenes
Experiment: Tested for inhibition of visible growth of Enterobacter aerogenes
Type: functional
Conditions: not given

Structure (SMILES)	MIC [µg/mL]
CC1=C(C(=O)O)N2C(=O)C(NC(=O)[C@H](N)c3ccc4c(c3)OCCO4)C2SC1 (stereo partly specified)	> 100
Cc1nnc(SCC2=C(C(=O)O)N3C(=O)C(NC(=O)[C@H](N)c4ccc5c(c4)CCO5)C3SC2)s1 (stereo partly specified)	25 (≈ 48.1 µM)
CC(=O)OCC1=C(C(=O)O)N2C(=O)[C@@H](NC(=O)Cc3cccs3)[C@H]2SC1 [CEPHALOTHIN]	100 (≈ 252 µM)

System: Escherichia coli
Experiment: Tested for the antimicrobial activity against Escherichia coli in mice
Type: functional
Conditions: not given

Structure (SMILES)	ED50 [mg/kg]
Cc1nnc(SCC2=C(C(=O)O)N3C(=O)C(NC(=O)[C@H](N)c4ccc5c(c4)CCO5)C3SC2)s1 (stereo partly specified)	9.3

System: not listed separately
Experiment: (§2) Tested for the antimicrobial activity against Salmonella schottmuelleri in mice
Type: functional
Conditions: not given

Structure (SMILES)	ED50 [mg/kg]
Cc1nnc(SCC2=C(C(=O)O)N3C(=O)C(NC(=O)[C@H](N)c4ccc5c(c4)CCO5)C3SC2)s1 (stereo partly specified)	23

System: Streptococcus pyogenes
Experiment: (§3) Tested for the antimicrobial activity against Streptococcus pyogenes in mice
Type: functional
Conditions: not given

Structure (SMILES)	ED50 [mg/kg]
CC1=C(C(=O)O)N2C(=O)C(NC(=O)[C@H](N)c3ccc4c(c3)OCCO4)C2SC1 (stereo partly specified)	1
Cc1nnc(SCC2=C(C(=O)O)N3C(=O)C(NC(=O)[C@H](N)c4ccc5c(c4)CCO5)C3SC2)s1 (stereo partly specified)	0.78

System: Streptococcus pyogenes
Experiment: as §3
Type: functional
Conditions: not given

Structure (SMILES)	ED50 [mg/kg]
CC1=C(C(=O)O)N2C(=O)C(NC(=O)[C@H](N)c3ccc4c(c3)OCCO4)C2SC1 (stereo partly specified)	0.81
Cc1nnc(SCC2=C(C(=O)O)N3C(=O)C(NC(=O)[C@H](N)c4ccc5c(c4)CCO5)C3SC2)s1 (stereo partly specified)	0.44

System: not listed separately
Experiment: as §2
Type: functional
Conditions: not given

Structure (SMILES)	ED50 [mg/kg]
Cc1nnc(SCC2=C(C(=O)O)N3C(=O)C(NC(=O)[C@H](N)c4ccc5c(c4)CCO5)C3SC2)s1 (stereo partly specified)	31

System: not listed separately
Experiment: Tested for inhibition of visible growth of Salmonella schottmuelleri
Type: functional
Conditions: not given

MIC [µg/mL]	Structure (SMILES)
6.2 (≈ 11.9 µM)	Cc1nnc(SCC2=C(C(=O)O)N3C(=O)C(NC(=O)[C@H](N)c4ccc5c(c4)CCO5)C3SC2)s1 (stereo partly specified)
50 (≈ 95.9 µM)	Cc1nnc(SCC2=C(C(=O)O)N3C(=O)C(NC(=O)[C@@H](N)c4ccc5c(c4)OCO5)C3SC2)s1 (stereo partly specified)
> 100	CC1=C(C(=O)O)N2C(=O)C(NC(=O)[C@@H](N)c3ccc4c(c3)OCO4)C2SC1 (stereo partly specified)

The remaining lines, values behind:

Structure (SMILES)	MIC [µg/mL]
CC1=C(C(=O)O)N2C(=O)C(NC(=O)[C@H](N)c3ccc4c(c3)OCCO4)C2SC1 (stereo partly specified)	50 (≈ 123 µM)
CC(=O)OCC1=C(C(=O)O)N2C(=O)[C@@H](NC(=O)Cc3cccs3)[C@H]2SC1 [CEPHALOTHIN]	3.1 (≈ 7.82 µM)

System: Enterococcus faecalis
Experiment: Tested for inhibition of visible growth of Streptococcus faecalis
Type: functional
Conditions: not given

MIC [µg/mL]	Structure (SMILES)
100 (≈ 192 µM)	Cc1nnc(SCC2=C(C(=O)O)N3C(=O)C(NC(=O)[C@H](N)c4ccc5c(c4)CCO5)C3SC2)s1 (stereo partly specified)
> 100	Cc1nnc(SCC2=C(C(=O)O)N3C(=O)C(NC(=O)[C@@H](N)c4ccc5c(c4)OCO5)C3SC2)s1 (stereo partly specified)
> 100	CC1=C(C(=O)O)N2C(=O)C(NC(=O)[C@@H](N)c3ccc4c(c3)OCO4)C2SC1 (stereo partly specified)

Second part, the molecule before the results:

Structure (SMILES)	MIC [µg/mL]
CC1=C(C(=O)O)N2C(=O)C(NC(=O)[C@H](N)c3ccc4c(c3)OCCO4)C2SC1 (stereo partly specified)	> 100
CC(=O)OCC1=C(C(=O)O)N2C(=O)[C@@H](NC(=O)Cc3cccs3)[C@H]2SC1 [CEPHALOTHIN]	100 (≈ 252 µM)

System: Escherichia coli
Experiment: Tested for inhibition of visible growth of Escherichia coli
Type: functional
Conditions: not given

MIC [µg/mL]	Structure (SMILES)
12.5 (≈ 24.1 µM)	Cc1nnc(SCC2=C(C(=O)O)N3C(=O)C(NC(=O)[C@H](N)c4ccc5c(c4)CCO5)C3SC2)s1 (stereo partly specified)
> 100	Cc1nnc(SCC2=C(C(=O)O)N3C(=O)C(NC(=O)[C@@H](N)c4ccc5c(c4)OCO5)C3SC2)s1 (stereo partly specified)
> 100	CC1=C(C(=O)O)N2C(=O)C(NC(=O)[C@@H](N)c3ccc4c(c3)OCO4)C2SC1 (stereo partly specified)

Further lines, the molecule ahead of its results:

Structure (SMILES)	MIC [µg/mL]
CC1=C(C(=O)O)N2C(=O)C(NC(=O)[C@H](N)c3ccc4c(c3)OCCO4)C2SC1 (stereo partly specified)	> 100
CC(=O)OCC1=C(C(=O)O)N2C(=O)[C@@H](NC(=O)Cc3cccs3)[C@H]2SC1 [CEPHALOTHIN]	12.5 (≈ 31.5 µM)

System: Streptococcus pneumoniae
Experiment: as §1
Type: functional
Conditions: not given

Structure (SMILES)	ED50 [mg/kg]
CC1=C(C(=O)O)N2C(=O)C(NC(=O)[C@H](N)c3ccc4c(c3)OCCO4)C2SC1 (stereo partly specified)	15
Cc1nnc(SCC2=C(C(=O)O)N3C(=O)C(NC(=O)[C@H](N)c4ccc5c(c4)CCO5)C3SC2)s1 (stereo partly specified)	1.6

System: Streptococcus pneumoniae
Experiment: Tested for inhibition of visible growth of Streptococcus pneumoniae
Type: functional
Conditions: not given

MIC [µg/mL]	Structure (SMILES)
≤ 0.03	Cc1nnc(SCC2=C(C(=O)O)N3C(=O)C(NC(=O)[C@H](N)c4ccc5c(c4)CCO5)C3SC2)s1 (stereo partly specified)
0.8 (≈ 1.53 µM)	Cc1nnc(SCC2=C(C(=O)O)N3C(=O)C(NC(=O)[C@@H](N)c4ccc5c(c4)OCO5)C3SC2)s1 (stereo partly specified)
50 (≈ 128 µM)	CC1=C(C(=O)O)N2C(=O)C(NC(=O)[C@@H](N)c3ccc4c(c3)OCO4)C2SC1 (stereo partly specified)

The next lines start with the molecule.

Structure (SMILES)	MIC [µg/mL]
CC1=C(C(=O)O)N2C(=O)C(NC(=O)[C@H](N)c3ccc4c(c3)OCCO4)C2SC1 (stereo partly specified)	0.8 (≈ 1.97 µM)
CC(=O)OCC1=C(C(=O)O)N2C(=O)[C@@H](NC(=O)Cc3cccs3)[C@H]2SC1 [CEPHALOTHIN]	0.1 (≈ 0.252 µM)

System: Staphylococcus aureus
Experiment: Tested for inhibition of visible growth of Staphylococcus aureus, benzyl-penicillin sensitive
Type: functional
Conditions: not given

MIC [µg/mL]	Structure (SMILES)
0.8 (≈ 1.54 µM)	Cc1nnc(SCC2=C(C(=O)O)N3C(=O)C(NC(=O)[C@H](N)c4ccc5c(c4)CCO5)C3SC2)s1 (stereo partly specified)
6.2 (≈ 11.9 µM)	Cc1nnc(SCC2=C(C(=O)O)N3C(=O)C(NC(=O)[C@@H](N)c4ccc5c(c4)OCO5)C3SC2)s1 (stereo partly specified)
25 (≈ 63.9 µM)	CC1=C(C(=O)O)N2C(=O)C(NC(=O)[C@@H](N)c3ccc4c(c3)OCO4)C2SC1 (stereo partly specified)

Continued, molecule first:

Structure (SMILES)	MIC [µg/mL]
CC1=C(C(=O)O)N2C(=O)C(NC(=O)[C@H](N)c3ccc4c(c3)OCCO4)C2SC1 (stereo partly specified)	0.8 (≈ 1.97 µM)
CC(=O)OCC1=C(C(=O)O)N2C(=O)[C@@H](NC(=O)Cc3cccs3)[C@H]2SC1 [CEPHALOTHIN]	0.2 (≈ 0.504 µM)

System: Staphylococcus aureus
Experiment: Tested for the antimicrobial activity against Staphylococcus aureus, benzyl-penicillin sensitive in mice, perorally
Type: functional
Conditions: po

Structure (SMILES)	ED50 [mg/kg]
CC1=C(C(=O)O)N2C(=O)C(NC(=O)[C@H](N)c3ccc4c(c3)OCCO4)C2SC1 (stereo partly specified)	0.5
Cc1nnc(SCC2=C(C(=O)O)N3C(=O)C(NC(=O)[C@H](N)c4ccc5c(c4)CCO5)C3SC2)s1 (stereo partly specified)	1.8

From ChEMBL document CHEMBL1121424, “Orally active cephalosporins and penicillins” (J Med Chem, 1980)
